Data: US11046716B2, “Beta-lactamase inhibitors” (priority 2015, dated 2021)

Tests used:
SHV-5 = molecular target: T1, SHV-5 (Klebsiella pneumoniae, UniProt P0A3M1); assay: β-lactamase enzyme inhibition assay, SHV-5 (cefotaxime substrate); type: biochemical
T1 construct: made in house; host or cells: E. coli BL21(DE3)
Procedure, shortened: (§1)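 Compounds are mixed with purified, untagged recombinant β-lactamase and held 15 min at 37 °C. Substrate is then added: nitrocefin (100 μM final) for OXA-1, imipenem for KPC-2, cefotaxime for SHV-5. Absorbance is followed immediately, and percent inhibition per concentration gives the IC50.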

VIM-2 = molecular target: T2, VIM-2 (Escherichia coli, UniProt Q5U7L7); assay: β-lactamase enzyme inhibition assay, VIM-2 (nitrocefin substrate); type: biochemical; settings: Class B; nitrocefin substrate, 486 nm; read-out: VIM-2
T2 construct: made in house; host or cells: E. coli BL21(DE3)
Procedure, shortened: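 Enzyme + inhibitor, 37 °C, 15 min; nitrocefin 100 μM final; A486 read for 10 min. % inhibition vs no-inhibitor wells per concentration; IC50 = concentration halving initial hydrolysis rate.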

[1] = tested on: K. pneumoniae expressing the Class A carbapenemase KPC-2; assay: Broth microdilution MIC assay with meropenem, K. pneumoniae KPC-2; type: cell-based; settings: Fixed Mero (meropenem) 4 μg/mL; K. p. 156319 KPC-3
Procedure, shortened: (§2)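 CAMHB; cpd 2-fold serial dilution, 16–0.125 μg/mL final; β-lactam static 4 μg/ml; CLSI inoculation; 16–20 h, 37° C; MIC read by eye.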

[2] = tested on: K. pneumoniae expressing the class A carbapenemase KPC-2 and the class B carbapenemase VIM-4; assay: Broth microdilution MIC assay with meropenem, K. pneumoniae KPC-2 and VIM-4; type: cell-based; settings: Fixed Mero (meropenem) 4 μg/mL; K. p. A-1797 KPC-2 VIM-4
Procedure, shortened: as §2

[3] = tested on: E. coli expressing the Class A Extended Spectrum Beta-Lactamase (ESBL) CTX-M-15; assay: Broth microdilution MIC assay with ceftazidime, E. coli CTX-M-15; type: cell-based; settings: Fixed CAZ (ceftazidime) 4 μg/mL; E. coli ESBL4 CTX-M-15
Procedure, shortened: as §2

[4] = tested on: K. pneumoniae producing the Class D carbapenemase OXA-48; assay: Broth microdilution MIC assay with meropenem, K. pneumoniae OXA-48; type: cell-based; settings: Fixed Mero (meropenem) 4 μg/mL; K. p. 11978 OXA-48
Procedure, shortened: as §2

OXA-48 = OXA-48 (UniProt Q6XEC0); assay: β-lactamase enzyme inhibition assay, Class D oxacillinase; type: biochemical; settings: read-out: OXA-48
KPC-2 = molecular target: T3, KPC-2 (Klebsiella pneumoniae, UniProt Q9F663); assay: β-lactamase enzyme inhibition assay, KPC-2 (imipenem substrate); type: biochemical; settings: Class A; imipenem substrate, 300 nm; read-out: KPC-2
T3 construct: made in house; host or cells: E. coli BL21(DE3)
T3 sequence (Q9F663 25-293, looked up): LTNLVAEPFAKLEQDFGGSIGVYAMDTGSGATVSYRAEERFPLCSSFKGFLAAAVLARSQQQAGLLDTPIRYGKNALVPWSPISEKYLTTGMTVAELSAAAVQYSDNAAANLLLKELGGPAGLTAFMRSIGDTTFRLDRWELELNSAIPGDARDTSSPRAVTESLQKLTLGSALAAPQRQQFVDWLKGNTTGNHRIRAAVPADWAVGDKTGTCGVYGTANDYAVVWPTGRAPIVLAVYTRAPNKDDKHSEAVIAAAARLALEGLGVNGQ
Procedure, shortened: as §1

[5] = tested on: E. cloacae expressing the Class C P99; assay: Broth microdilution MIC assay with ceftazidime, E. cloacae P99; type: cell-based; settings: Fixed CAZ (ceftazidime) 4 μg/mL; E. cl. 144200 p99 AmpC
Procedure, shortened: as §2

[6] = tested on: P. aeruginosa expressing the Class B carbapenemase VIM-2; assay: Broth microdilution MIC assay with meropenem, P. aeruginosa VIM-2; type: cell-based; settings: Fixed Mero (meropenem) 4 μg/mL; P. aerug. 2775 VIM-2
Procedure, shortened: as §2

AmpC = molecular target: T4, AmpC (Enterobacter cloacae, UniProt P05364); assay: β-lactamase enzyme inhibition assay, p99 AmpC (nitrocefin substrate); type: biochemical
T4 construct: made in house; host or cells: E. coli BL21(DE3)
T4 sequence (P05364 21-381): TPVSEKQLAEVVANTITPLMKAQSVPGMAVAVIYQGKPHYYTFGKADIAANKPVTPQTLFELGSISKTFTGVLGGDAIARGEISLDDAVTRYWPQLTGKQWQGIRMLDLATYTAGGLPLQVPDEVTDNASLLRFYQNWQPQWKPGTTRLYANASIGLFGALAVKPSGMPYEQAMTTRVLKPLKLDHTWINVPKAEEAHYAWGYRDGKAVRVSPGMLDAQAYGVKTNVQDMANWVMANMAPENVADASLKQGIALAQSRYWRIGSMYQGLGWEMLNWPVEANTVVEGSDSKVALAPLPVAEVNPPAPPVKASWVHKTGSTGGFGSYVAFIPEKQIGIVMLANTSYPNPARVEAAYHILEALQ
Procedure, shortened: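 Compounds are mixed with purified, untagged recombinant β-lactamase and held 15 min at 37 °C. Substrate is then added. Absorbance is followed immediately, and percent inhibition per concentration gives the IC50.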

T1 sequence (P0A3M1 22-286): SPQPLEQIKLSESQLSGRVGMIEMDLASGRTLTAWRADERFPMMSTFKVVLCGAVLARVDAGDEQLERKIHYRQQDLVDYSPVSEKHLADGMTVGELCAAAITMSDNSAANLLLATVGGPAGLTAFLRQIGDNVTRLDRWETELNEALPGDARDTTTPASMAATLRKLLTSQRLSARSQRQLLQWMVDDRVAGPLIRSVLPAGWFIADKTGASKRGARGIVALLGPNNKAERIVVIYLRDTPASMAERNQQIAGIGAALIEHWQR

| SMILES | IC50 (SHV-5) [nM] | IC50 (VIM-2) [nM] | MIC (μg/mL) of Exemplary Compounds in presence of fixed β-lactams: K. p. 156319 KPC-3 [1] | MIC (μg/mL) of Exemplary Compounds in presence of fixed β-lactams: K. p. A-1797 KPC-2 VIM-4 [2] | MIC (μg/mL) of Exemplary Compounds in presence of fixed β-lactams: E. coli ESBL4 CTX-M-15 [3] | MIC (μg/mL) of Exemplary Compounds in presence of fixed β-lactams: K. p. 11978 OXA-48 [4] | IC50 (OXA-48) [nM] | IC50 (KPC-2) [nM] | MIC (μg/mL) of Exemplary Compounds in presence of fixed β-lactams: E. cl. 144200 p99 AmpC [5] | MIC (μg/mL) of Exemplary Compounds in presence of fixed β-lactams: P. aerug. 2775 VIM-2 [6] | IC50 (AmpC) [nM] |
| --- | --- | --- | --- | --- | --- | --- | --- | --- | --- | --- | --- |
| NCC(O)Cc1cn(CC(=O)N[C@H]2Cc3cccc(C(=O)O)c3OB2O)nn1 (stereo partly drawn) [Example 92, (3R)-3-(2-(4-(3-amino-2-hydroxypropyl)-1H-1,2,3-triazol-1-yl)acetamido)-2-hydroxy-3,4-dihydro-2H-benzo[e][1,2]oxaborinine-8-carboxylic acid] | 100 to 1000 | < 100 | C (C represents an MIC of <1 μg/mL) | B (B represents an MIC between 1 and 16 μg/mL inclusive) | C (C represents an MIC of <1 μg/mL) | B (B represents an MIC between 1 and 16 μg/mL inclusive) | 1000 to 10000 | < 100 | C (C represents an MIC of <1 μg/mL) | C (C represents an MIC of <1 μg/mL) | < 100 |
| NC(=O)c1ncn(CC(=O)N[C@H]2Cc3cccc(C(=O)O)c3OB2O)n1 [Example 35, (R)-3-(2-(3-carbamoyl-1H-1,2,4-triazol-1-yl)acetamido)-2-hydroxy-3,4-dihydro-2H-benzo[e][1,2]oxaborinine-8-carboxylic acid] | < 100 | 1000 to 10000 | B (B represents an MIC between 1 and 16 μg/mL inclusive) | A (A represents an MIC>16 μg/mL) | C (C represents an MIC of <1 μg/mL) | B (B represents an MIC between 1 and 16 μg/mL inclusive) | 1000 to 10000 | < 100 | C (C represents an MIC of <1 μg/mL) | B (B represents an MIC between 1 and 16 μg/mL inclusive) | < 100 |
| NC1CCN(C(=O)c2cn(CC(=O)N[C@H]3Cc4cccc(C(=O)O)c4OB3O)nn2)CC1 [Example 82, (R)-3-(2-(4-(4-aminopiperidine-1-carbonyl)-1H-1,2,3-triazol-1-yl)acetamido)-2-hydroxy-3,4-dihydro-2H-benzo[e][1,2]oxaborinine-8-carboxylic acid] | < 100 | 100 to 1000 | C (C represents an MIC of <1 μg/mL) | B (B represents an MIC between 1 and 16 μg/mL inclusive) | C (C represents an MIC of <1 μg/mL) | C (C represents an MIC of <1 μg/mL) | 100 to 1000 | < 100 | C (C represents an MIC of <1 μg/mL) | C (C represents an MIC of <1 μg/mL) | < 100 |
